Source: US3963727A, “1,2 Disubstituted benzimidazole derivatives” (Daiichi Seiyaku Co., Ltd., priority 1975, dated 1976)
Entries after “also recorded” stand apart in the source; their conditions may differ. Where two headings read alike, the source gives them in different places.

Experiments:
[1] = tested on: gnawing (stereotyped behavior induced by apomorphine); experiment: Anti-apomorphine Test in Rats; assay type: in vivo, rats of Wistar strain (male); conditions: for Potency Ratio: anti-apomorphine ED50, relative to haloperidol = 1.0; for ED50: read-out: ED50 and Its Confidence Limit
Protocol: Six male rats of Wistar strain weighing 120 to 200 g were used at each dosage level. […] The effect against apomorphine was taken as positive when gnawing behavior was not noticed during the observation period of 1 minute. ED50 was calculated from the dose inhibition percet relationship.

[2] = tested on: conditioned avoidance (avoidance failure); experiment: Conditioned Avoidance Test by Shuttle Box; assay type: in vivo, rats of Wistar strain (male); conditions: for Potency Ratio: conditioned avoidance ED50, relative to haloperidol = 1.0; for ED50: read-out: ED50 and Its Confidence Limit
Source text: Use was made of a shuttle box consisted of two chambers divided by a plate with a square hole. The floor of each chamber was made of steel-rod grid which can be charged electrically. The whole apparatus was maintained in a sound proof room. The training schedule was as follows. Each trial was initiated by supplying the sound of buzzer as conditioned stimulus for 3 seconds. Unless the rats escaped to another compartment […] thereafter, the grid floor was electrified for 4 seconds as unconditioned stimulus. Each rat was trained for more than 2 weeks with a daily session of 30 trials at an interval of 60 seconds.
Six rats per group were subjected to 10 consecutive trails 1, 2, 4, 6, 8 and 10 hours after medication, respectively. In this case, a 3-second interval was taken between the termination of the conditioned stimulus and the onset of the unconditioned one. ED50 values at each time were calculated from the average percentages of avoidance failure.

[3] = Catalepsy Test in Rats; conditions: rat, in vivo, po
Protocol: (§1) After medication, both legs of the rats were put on a horizontal metal bar, 12 cm apart from the floor, and the rats were forced to stand on hind legs. Observation of rat behavior was made 1, 2, 4, 6, 8, 10, 12 and 24 hours later.

[4] = tested on: catalepsy; experiment: Catalepsy Test in Rats; conditions: for Potency Ratio: catalepsy ED50, relative to haloperidol = 1.0; for dissociation between the dose effective against methamphetamine and the dose inducing catalepsy / catalepsy: rat, oral, in words; for dissociation between the dose effective against methamphetamine and the dose inducing catalepsy: comparison of anti-methamphetamine and catalepsy tests
Protocol: as §1

[5] = tested on: stereotyped behavior induced with methamphetamine hydrochloride; experiment: Anti-methamphetamine Test in Rats; conditions: for ED50: Rattus norvegicus, po, read-out: ED50 and Its Confidence Limit; for Potency Ratio: anti-methamphetamine ED50, relative to haloperidol = 1.0; for suppressing methamphetamine-induced stereotypy: rat, oral, in words
[6] = tested on: catalepsy; conditions: rat, in vivo
Protocol: as §1

[7] = in vivo; conditions: rat, po
Protocol: as §1

[8] = rat, oral, apomorphine 1.25 mg/kg i.v., time of maximum effect 2 hrs

Compound	Potency Ratio [1]	ED50 [1, 8] [mg/kg]	Potency Ratio [2]	ED50 ([2]; shuttle box, rat, oral, time of maximum effect 4 hrs) [mg/kg]	ED50 at 10 h [3] [mg/kg]	Potency Ratio [4]	dissociation between the dose effective against methamphetamine and the dose inducing catalepsy [4]	catalepsy [4]	ED50 ([5]; 1 h) [mg/kg]	Potency Ratio [5]	suppressing methamphetamine-induced stereotypy [5]	ED50 ([1]; Rattus norvegicus, po, 2 h) [mg/kg]	ED50 ([2]; Rattus norvegicus, po, 4 h) [mg/kg]	Potency Ratio [6]	ED50 at 8 h [7] [mg/kg]	ED50 ([1]; Rattus norvegicus, po, 1 h) [mg/kg]	ED50 at 8 h [3] [mg/kg]	ED50 ([5]; 2 h) [mg/kg]	ED50 ([2]; shuttle box, rat, oral, time of maximum effect 6 hrs) [mg/kg]
CSc1nc2ccccc2n1C1CCN(CCCC(=O)c2ccc(F)cc2)CC1 [Compound B, 1-[1-(3-(4-fluorobenzoyl)propyl)-4-piperidyl]-2-methylmercaptobenzimidazole]	1.7	0.41	1.6	0.34	0.68	1.3	marked dissociation	produce catalepsy only in higher doses	0.17	2.8	highly effective in suppressing methamphetamine-induced stereotypy	–	–	–	–	–	–	–	–
O=C(CCCN1CCC(O)(c2ccc(Cl)cc2)CC1)c1ccc(F)cc1 [Haloperidol, reference compound]	–	–	–	–	–	–	exhibit both the effects at almost the same dose level; also recorded: exhibit simultaneously both desired and undesired side-effects to almost the same extent at their effective dosages	–	0.48	–	–	0.71	0.53	1.0	0.88	–	–	–	–
O=C(CCCN1CCC(n2c(O)nc3ccccc32)CC1)c1ccc(F)cc1 [Benperidol, reference compound]	1.1	–	0.7	–	–	0.95	exhibit both the effects at almost the same dose level; also recorded: exhibit simultaneously both desired and undesired side-effects to almost the same extent at their effective dosages	–	–	1.1	–	–	0.81	–	–	0.62	0.92	0.44	–
O=C(CCCN1CCC(n2c(S)nc3ccccc32)CC1)c1ccc(F)cc1 [Compound A, 1-[1-(3-(4-fluorobenzoyl)propyl)-4-piperidyl]-2-mercaptobenzimidazole]	7.5	0.095	8.8	–	0.25	3.5	marked dissociation	produce catalepsy only in higher doses	–	8.9	highly effective in suppressing methamphetamine-induced stereotypy	–	–	–	–	–	–	0.054	0.06
